≈ marks a conversion by molar mass, not a printed value. Calls of active or inactive are those of the source. The calls are words filed in the database; no cut-off is given here.
Experiments:
[1] = Toxicity against Artemia salina; format: organism-based; details: in vivo, read-out: LD50 (the source's name)
[2] = system: Escherichia coli; assay: Antibacterial activity against Escherichia coli; format: functional, organism-based
[3] = system: Candida albicans; assay: […] activity against Candida albicans; format: functional, organism-based

Row | Compound | LC50 [1] | Activity [2] | Activity [3]
1 | CC(=O)O[C@H]1[C@H](OC(=O)C[C@@](C)(O)CC(=O)O)C[C@]2(C)C3=C(CC[C@H]2C1(C)C)[C@]1(C)CC[C@H]([C@H]2CC[C@H](C(C)(C)O)O[C@@H]2O)[C@@]1(C)[C@@H](O)C3 [HEBELOMIC ACID A] | 96.5 µg/mL (≈ 139 µM) | inactive | inactive
2 | CC(=O)O[C@H]1CC2=C(CC[C@H]3C(C)(C)[C@@H](OC(C)=O)[C@H](OC(=O)C[C@@](C)(O)CC(=O)O)C[C@]23C)[C@]2(C)CC[C@H]([C@H]3CC[C@H](C(C)(C)O)O[C@@H]3O)[C@@]12C [HEBELOMIC ACID B] | 386 µg/mL (≈ 525 µM) | inactive | inactive
3 | CC(=O)O[C@H]1O[C@@H](C(C)(C)O)CC[C@@H]1[C@H]1CC[C@@]2(C)C3=C(CC[C@]12C)[C@@]1(C)C[C@@H](OC(=O)C[C@@](C)(O)CC(=O)O)[C@H](OC(C)=O)C(C)(C)[C@@H]1CC3 [HEBELOMIC ACID F] | 19.7 µg/mL (≈ 27.4 µM) | inactive | inactive
